Columns and labels:
naive CD4+ T cells = experiment: IL-10 in naive CD4+ T cells cultured with GSK-3 inhibitors (ICCS, bead immunoassay); format: cell-based, mouse; settings: for IL-10 production: naive CD4+CD62L+ T-cells from Tg4 spleens, cultured in the presence of GSK3 inhibitors; for Intracellular IL-10 levels: naive Tg4 CD4+ cells, anti CD3/anti CD28 Dynabeads, 2 μM CHIR99021 or 3 μM SB216763, ICCS day 7
Experimental: A. CD4^+/CD62L^+ T cells were isolated from Tg4 splenocytes and cultured with anti-CD3/anti-CD28 coated beads in the presence of IL-2 and DMSO (1:1000; Control), CHIR99021 (2 μM), SB216763 (5 μM) or SB627772 (10 μM). Intracellular cytokine staining for […] and IL-10 was carried out on day 7 of restimulation after PMA and lonomycin stimulation. Data are plots gated on live CD4^+ cells and are representative of 3 independent experiments.
B. Tissue culture supernatants were taken on day 3 of restimulation and analysed for IL-10 by fluorescent bead immunoassay. Data are mean+/−SEM of 3 independent experiments.
CD4+ cells purified from a naive Tg4 spleen were cultured in the presence of 2 μM CHIR99021, 3 μM SB216763 or 0.02% DMSO (vehicle control) with anti CD3/anti CD28 Dynabeads. Cells were analysed by ICCS on Day 7 after stimulation.
(§1) In a separate experiment, CD4+ cells from Tg4 mice which express TCR specific for the peptide Ac[1-9] of MBP were polarised to a Th1 phenotype and then cultured in the presence of GSK3 inhibitors. Three structurally distinct inhibitors, CHIR99021, SB216763 and SB627772 were used to minimise effects of off-target inhibition.

Th1 cells [1] = experiment: IL-10 protein in Th1-polarised CD4+ cells restimulated with GSK-3 inhibitors (ICCS, bead immunoassay); format: cell-based, mouse; settings: for IL-10 protein: Th1 CD4+ cells restimulated with APCs and peptide or with anti-CD3/anti-CD28 coated beads; for Intracellular IL-10 levels: Th1 cells restimulated with anti CD3/anti CD28 Dynabeads, 2 μM CHIR99021 or 3 μM SB216763, ICCS day 7
Experimental: A. Splenocytes from a naive Tg4 mouse were cultured in the presence of peptide MBP Ac1-9 (10 μg/ml) and IL-12 with IL-2 added on day 3 of culture to polarise CD4+ cells towards a Th1 phenotype. On day 7 of culture, Th1 cells were restimulated with fresh irradiated APCs from a B10_PL mouse in the presence of DMSO (1:1000; Control), CHIR99021 (2 μM), SB216763 (5 μM) or SB627772 (10 μM) as well as peptide MBP Ac1-9 (10 μg/ml). IL-2 was added on day 3 of culture and intracellular cytokine staining for IFNγ and IL-10 carried out on day 7 of restimulation after PMA and lonomycin stimulation. Data are plots gated on live CD4^+ cells and are representative of 5 independent experiments.
C. Splenocytes from a naive Tg4 mouse were cultured in the presence of peptide MBP Ac1-9 (10 μg/ml) and IL-12 with IL-2 added on day 3 of culture to polarise CD4+ cells towards a Th1 phenotype. On day 7 of culture, Th1 CD4+ cells were isolated and restimulated with anti-CD3/anti-CD28 coated beads in the presence of IL-2 and DMSO (1:1000; Control), CHIR99021 (2 μM), SB216763 (5 μM) or SB627772 (10 μM). Intracellular cytokine staining for IFNγ and IL-10 was carried out on day 7 of restimulation after PMA and lonomycin stimulation. Data are plots gated on live CD4^+ cells and are representative of 4 independent experiments.
E. Tissue culture supernatants were taken on day 3 of restimulation and analysed for IL-10 by fluorescent bead immunoassay. Data are mean+/−SEM and are representative of 3 independent experiments.
Splenocytes from a naive Tg4 mouse were cultured in the presence of peptide MBP Ac1-9 (10 μg/ml) and IL12 with IL2 added on day 3 to polarise cells to a Th1 phenotype. On day 7, cells were restimulated with anti CD3/anti CD28 Dynabeads and 2 μM CHIR99021, 3 μM SB216763 or 0.02% DMSO (vehicle control). Cells were analysed by ICCS on Day 7 after stimulation. Intracellular IL-10 levels were increased following treatment with either GSK-3 inhibitor (CHIR99021 or SB216763).
as §1

Th1 cells [2] = experiment: IL-10 mRNA by qPCR in Th1 CD4+ cells; format: cell-based, mouse; settings: IL-10 relative to HPRT1
Experimental: F. Splenocytes from a naive Tg4 mouse were cultured in the presence of peptide MBP Ac1-9 (10 μg/ml) and IL-12 with IL-2 added on day 3 of culture to polarise CD4+ cells towards a Th1 phenotype. On day 7 of culture, Th1 cells were restimulated with fresh irradiated APCs from a B10_PL mouse in the presence of DMSO (1:1000; Control), CHIR99021 (2 μM), SB216763 (5 μM) or SB627772 (10 µM) as well as peptide MBP Ac1-9 (10 μg/ml). IL-2 was added on day 3 of culture. On day 7 of restimulation live CD4^+ cells were selected and stimulated with anti CD3/CD28 antibodies for 16 hrs. RNA was extracted and IL-10 mRNA quantified by qPCR. IL-10 quantities are shown relative to HPRT1 control.
as §1

APC / Th1 CD4+ cells = experiment: IL-10 with APCs from WT or IL-10 knockout mice (ICCS, ELISA); format: cell-based, mouse; settings: 2 μM CHIR99021, APCs from WT or IL10 knockout mice, ICCS and day 3 ELISA
Experimental: A. Splenocytes from a naive Tg4 mouse were cultured in the presence of peptide MBP Ac1-9 (10 μg/ml) and IL-12 with IL-2 added on day 3 of culture to polarise CD4+ cells towards a Th1 phenotype. On day 7 of culture, Th1 cells were restimulated with fresh irradiated APCs from either a B10_PL or B10_PL IL10^−/− mouse in the presence of DMSO (1:1000; Control) or CHIR99021 (2 μM). IL-2 was added on day 3 of culture and intracellular cytokine staining for […] and IL-10 carried out on day 7 of restimulation after PMA and lonomycin stimulation. Data are plots gated on live CD4^+ cells and are representative of 3 independent experiments. B. Tissue culture supernatants were taken on day 3 of restimulation and analysed for IL-10 by ELISA. Data are mean+/−SEM and are representative of 3 independent experiments. Splenocytes from a naive Tg4 mouse were cultured in the presence of either: (a) peptide MBP Ac1-9 (10 μg/ml) and IL12 with IL2 added on day 3 to polarise cells to a Th1 phenotype; or (b) IL4 and anti IFNγ with IL2 added on day 3 to polarise cells to a Th2 phenotype. On day 7 CD4+ cells were restimulated with fresh irradiated APCs from either WT or IL10 knockout mice, 2 μM CHIR99021 or 0.02% DMSO (vehicle control) and peptide […] of MBP (10 μg/ml). Supernatants were taken in triplicate on day 3 and analysed for IL-10 by ELISA (FIG. 3 (E)). […]

β-catenin [3] = experiment: beta-catenin Western blot in Th1 CD4+ cells; format: cell-based, mouse; settings: for β-catenin accumulation (Western blot): CD4+ cells, 2 μM CHIR99021, 5 μM SB216763, 10 μM SB627772; for β-catenin levels (Western blot): Th1 cells restimulated with APCs and peptide, indicated concentrations, day 7
Experimental: G. Splenocytes from a naive Tg4 mouse were cultured in the presence of peptide MBP Ac1-9 (10 μg/ml) and IL-12 with IL-2 added on day 3 to polarise cells to a Th1 phenotype. On day 7 cells were restimulated with fresh irradiated APCs from a B10_PL mouse, peptide Ac1-9 of MBP (10 μg/ml) and the indicated concentrations of CHIR99021, SB216763 or SB627772. On day 7 of restimulation, CD4^+ cells were lysed in RIPA buffer, subjected to Western blotting and probed with beta catenin antibody. The membrane was stripped and reprobed for GAPDH as a loading control.
Splenocytes from a naive Tg4 mouse were cultured in the presence of peptide MBP Ac1-9 (10 μg/ml) and IL12 with IL2 added on day 3 to polarise cells to a Th1 phenotype. On day 7 cells were restimulated with fresh irradiated APCs, peptide Ac1-9 of MBP (10 μg/ml) and the indicated concentrations of SB216763 or CHIR99021. On day 7 of restimulation, cells were lysed in RIPA buffer, subjected to Western blotting and probed with beta catenin antibody. The membrane was stripped and reprobed for GAPDH as a loading control. GSK-3 consititutively phosphorylates the β-catenin protein, leading to its degradation.

β-catenin [4] = settings: cited from earlier work

SMILES | IL-10 production (naive CD4+ T cells) | Intracellular IL-10 levels (naive CD4+ T cells) | IL-10 protein (Th1 cells [1]) | Intracellular IL-10 levels (Th1 cells [1]) | IL-10 mRNA (qPCR) (Th1 cells [2]) | IL-10 in / produced by the APC (APC / Th1 CD4+ cells) | β-catenin accumulation (Western blot) (β-catenin [3]) | β-catenin levels (Western blot) (β-catenin [3]) | Level of β-catenin (β-catenin [4])
Cc1c[nH]c(-c2cnc(NCCNc3ccc(C#N)cn3)nc2-c2ccc(Cl)cc2Cl)n1 [CHIR99021] | did not show any change | not significantly affected | significantly increased | increased | upregulation | Neither the intracellular level of IL-10 in the APC nor the production of IL-10 by the APC was enhanced | no accumulation of β-catenin | degradation of β-catenin appears to be inhibited, leading to build up of the β-catenin protein | 
Cn1cc(C2=C(c3ccc(Cl)cc3Cl)C(=O)NC2=O)c2ccccc21 [SB216763] | did not show any change | not significantly affected | significantly increased | increased | upregulation |  | no accumulation of β-catenin | does not appear to cause a significant effect on β-catenin levels | 
O=C1NC(=O)C(c2ccccc2[N+](=O)[O-])=C1Nc1ccc(O)c(Cl)c1 [SB415286] |  |  |  |  |  |  |  |  | elevate the level of 13-catenin

Reference: patent publication US20150071967A1, “Tolerisation-Inducing Composition” (University of Bristol, priority 2012, published 2015)
